Data: US20240366524A1, “COMPOSITION AND METHOD FOR TREATING OR PREVENTING INFECTIONS” (CHITOGEL LIMITED, priority 2021, published 2024)
“Also recorded” adds a separate entry of the source.

Legend:
P. aeruginosa [1] = assay: Cellulose disk on nutrient agar survival test (Example 6); format: cell-based; details: 48 h aerobic
Description: The growth of S. aureus and P. aeruginosa in the presence of glycerol, chitosan-dextran polymer, or a combination of glycerol and chitosan-dextran polymer, was investigated according to the following methodology: • (A) Cellulose disks (approximately 1 cm in diameter) pre-soaked in S. aureus or P. aeruginosa cultures were placed on the surface of sterile nutrient agar plates. A test substance was placed on top of the soaked disks to allow contact with both the nutrient agar and a test substance. An untreated control agar plate contained only the soaked cellulose disk, with no test substance applied. The test substances were as described in Example 5, namely: (1) 20% v/v glycerol in water; (2) CS-DA-GLY; and (3) CS-DA. All test and control cellulose disk plates were incubated for 48±1 hours at conditions appropriate for each microorganism (e.g. aerobic conditions for S. aureus and P. aeruginosa, and anaerobic conditions for C. acnes). […] Following incubation for 72 hours 40 minutes at conditions appropriate for each microorganism, the surviving test microorganisms were recorded for each test and control plate. • (B) The same methodology as (A) was performed, but the cellulose disk plates additionally included the supernatant of a C. acnes culture that was grown on a substrate comprising 20% glycerol. […]

C. pseudodiphtheriticum = assay: Planktonic growth of nasal clinical isolates (OD 595 nm, 24 h); format: cell-based, Corynebacterium pseudodiphtheriticum
Experimental: (§1) The effect of glycerol on bacterial growth was determined by analysis of nasal bacterial isolates from subjects participating in the trial described in Example 3. The bacterial isolates were cultured for 24 hours in Nutrient Broth (NB) and Brain-Heart Infusion (BHI) which further contained glycerol in an amount of either 20% v/v, or 40% v/v, or 0% glycerol (control).
(§2) A total of 22 nasal clinical isolates including C. accolens (n=4), C. propinquum(n=3), C. pseudodiptheriticum (n=3), S. epidermidis (n=4), S. aureus (n=4) and P. aeruginosa (n=4) were used in this experiment. Prior to starting experiments, isolates were grown in tryptic soya agar (TSA) and incubated at 37° C. under aerobic conditions for 24 hours, except for C. accolens which was incubated for 48 hours.
(§3) Glycerol at 20% was prepared by dilution in nutrient broth (NB) media. Glycerol treatments at 20% concentrations were prepared in a 96-well microtitration plate containing 50 μL NB. A single colony of bacterial isolates such as C. accolens, C. propinquum, C. pseudodiptheriticum, S. epidermidis, S. aureus and P. aeruginosa from overnight cultures was suspended with 0.9% saline (aqueous NaCl) to McFarland standard of 0.5 and diluted 1:100 in NB growth media. Next, 50 μL of the diluted bacterial suspension was then added to the treatments in each well and incubated aerobically for 24 hours at 37° C. A negative control (media without bacteria and treatment) and untreated growth control (media with bacteria but no treatment) were used in this assay. After incubation, the planktonic bacterial growth was determined by measuring the optical density (OD) at 595 nm using microplate absorbance reader (iMark™, BIO-RAD). For each bacterial strain, six replicate experiments were performed to assess bacterial growth.

S. epidermidis = assay: as above; format: cell-based, Staphylococcus epidermidis
Experimental: as §1, §2, §3

P. aeruginosa [2] = assay: as above; format: cell-based
Experimental: as §1, §2, §3

S. aureus [3] = assay: as above; format: cell-based
Experimental: as §1, §2, §3

C. accolens = assay: as above; format: cell-based; details: NB and BHI
Experimental: as §1, §2, §3

S. aureus [4] = assay: Cellulose disk on nutrient agar survival test (Example 6); format: cell-based; details: 48 h aerobic
Description: The growth of S. aureus and P. aeruginosa in the presence of glycerol, chitosan-dextran polymer, or a combination of glycerol and chitosan-dextran polymer, was investigated according to the following methodology: • (A) Cellulose disks (approximately 1 cm in diameter) pre-soaked in S. aureus or P. aeruginosa cultures were placed on the surface of sterile nutrient agar plates. A test substance was placed on top of the soaked disks to allow contact with both the nutrient agar and a test substance. An untreated control agar plate contained only the soaked cellulose disk, with no test substance applied. The test substances were as described in Example 5, namely: (1) 20% v/v glycerol in water; (2) CS-DA-GLY; and (3) CS-DA. All test and control cellulose disk plates were incubated for 48±1 hours at conditions appropriate for each microorganism (e.g. aerobic conditions for S. aureus and P. aeruginosa, and anaerobic conditions for C. acnes). Following incubation, the cellulose disks were each aseptically removed from the agar surface and the microorganism contents of the cellulose disks were individually extracted using sterile phosphate-buffered saline solution. Each of the resulting microorganism suspensions were serially diluted 1:10 in sterile phosphate-buffered saline solution and 1.000 mL of the appropriate dilutions were plated in singlet to sterile growth media appropriate for the target test microorganism. Following incubation for 72 hours 40 minutes at conditions appropriate for each microorganism, the surviving test microorganisms were recorded for each test and control plate. • (B) The same methodology as (A) was performed, but the cellulose disk plates additionally included the supernatant of a C. acnes culture that was grown on a substrate comprising 20% glycerol. […]

[5] = system: commensal and pathogenic bacterial isolates; assay: Planktonic growth of nasal clinical isolates (OD 595 nm, 24 h), all isolates; format: cell-based
Experimental: as §1, §2, §3

C. acnes = assay: Cellulose disk on nutrient agar survival test (Example 5); format: cell-based; details: 48 hours incubation, anaerobic; glycerol as 20% in water
Description: The growth of C. acnes in the presence of glycerol, chitosan-dextran polymer (CS-DA), and a combination of glycerol and chitosan-dextran polymer (CS-DA-GLY) was investigated according to the following methodology: • Cellulose disks (approximately 1 cm in diameter) pre-soaked in C. acnes culture were placed on the surface of sterile nutrient agar plates. A test substance was placed on top of the soaked disks to allow contact with both the nutrient agar and a test substance. An untreated control agar plate contained only the soaked cellulose disk, with no test substance applied. The test substances were: (1) 20% glycerol in water; (2) a composition comprising aldehyde-derivatised dextran polymer cross linked with N-succinyl chitosan polymer, an aqueous phosphate buffer and approximately 20% v/v glycerol, prepared according to the description above in Example 2 (herein referred to as CS-DA-GLY); and (3) a composition comprising aldehyde-derivatised dextran polymer cross linked with N-succinyl chitosan polymer, and an aqueous phosphate buffer (herein referred to as CS-DA). That is, the composition of test substances (2) and (3) differ only in the presence and absence of glycerol. […] Following incubation for 112 hours 5 minutes at conditions appropriate for the microorganism, the surviving test microorganisms were recorded for each test and control plate.

C. propinquum = assay: Planktonic growth of nasal clinical isolates (OD 595 nm, 24 h); format: cell-based, Corynebacterium propinquum
Experimental: as §1, §2
Glycerol at 20% was prepared by dilution in nutrient broth (NB) media. Glycerol treatments at 20% concentrations were prepared in a 96-well microtitration plate containing 50 μL NB. A single colony of bacterial isolates such as C. accolens, C. propinquum, C. pseudodiptheriticum, S. epidermidis, S. aureus and P. aeruginosa from overnight cultures was suspended with 0.9% saline (aqueous NaCl) to McFarland standard of 0.5 and diluted 1:100 in NB growth media. […] After incubation, the planktonic bacterial growth was determined by measuring the optical density (OD) at 595 nm using microplate absorbance reader (iMark™, BIO-RAD). […]

[6] = test set A, no C. acnes supernatant, glycerol as 20% v/v in water
[7] = 20% glycerol, Nutrient Broth, 24 hours
[8] = 20% v/v glycerol, media (NB and BHI)

## OCC(O)CO [glycerol]
P. aeruginosa [1]; [6]
  growth of P. aeruginosa compared to control: decrease
P. aeruginosa [1]; test set C, with C. acnes supernatant (grown in the presence of glycerol)
  growth of P. aeruginosa compared to control: much more substantial decrease; also recorded: reduction
C. pseudodiphtheriticum; [7]
  planktonic growth of C. pseudodiphtheriticum vs untreated growth control: significantly inhibit; also recorded: significantly reduced
C. pseudodiphtheriticum; [8]
  growth of C. pseudodiphtheriticum compared to control: inhibited
C. pseudodiphtheriticum; 40% v/v glycerol, NB and BHI
  growth of C. pseudodiphtheriticum: significant inhibitory effect
S. epidermidis; [7]
  planktonic growth of S. epidermidis vs untreated growth control: significantly inhibit; also recorded: significantly reduced
S. epidermidis; [8]
  growth of S. epidermidis compared to control: inhibited
S. epidermidis; 40% v/v glycerol, NB and BHI
  growth of S. epidermidis: significant inhibitory effect
P. aeruginosa [2]; [7]
  planktonic growth of P. aeruginosa vs untreated growth control: significantly inhibit; also recorded: significantly reduced
P. aeruginosa [2]; [8]
  growth of P. aeruginosa compared to control: inhibited
P. aeruginosa [2]; 40% v/v glycerol, NB and BHI
  growth of P. aeruginosa: significant inhibitory effect
S. aureus [3]; [7]
  planktonic growth of S. aureus vs untreated growth control: significantly reduced; also recorded: significantly inhibit
S. aureus [3]; [8]
  growth of S. aureus compared to control: inhibited
S. aureus [3]; 40% v/v glycerol, NB and BHI
  growth of S. aureus: significant inhibitory effect
C. accolens; 20% v/v glycerol
  growth of C. accolens compared to control: either unaffected or promoted
C. accolens; 40% v/v glycerol
  growth of C. accolens: significant inhibitory effect
S. aureus [4]; [6]
  growth of S. aureus compared to control: decrease
S. aureus [4]; test set B, comprising C. acnes supernatant (method b251: culture grown on 20% glycerol substrate)
  growth of S. aureus compared to control: decrease
S. aureus [4]; test set C, comprising C. acnes supernatant (method b251: glycerol-free substrate; b254: grown in the presence of glycerol)
  growth of S. aureus compared to control: decrease
[5]; 20% glycerol, BHI broth
  growth of commensal and pathogenic bacterial isolates: significantly inhibit
[5]; 40% glycerol, BHI broth
  growth of commensal and pathogenic bacterial isolates: significantly inhibit
[5]; 40% glycerol, NB
  growth of commensal and pathogenic bacterial isolates: significantly inhibit
C. acnes
  growth (percent survival) of C. acnes compared to untreated control: supported
C. propinquum; [8]
  growth of C. propinquum compared to control: inhibited
C. propinquum; 40% v/v glycerol, NB and BHI
  growth of C. propinquum: significant inhibitory effect
